The target in test [1] is T1, 5-HT3 receptors (Rattus norvegicus, UniProt P35563).
T1 construct: isolated vagus nerve of the rat; from tissue; host or cells: rat isolated (cervical) vagus nerve
T1 sequence (P35563 24-483): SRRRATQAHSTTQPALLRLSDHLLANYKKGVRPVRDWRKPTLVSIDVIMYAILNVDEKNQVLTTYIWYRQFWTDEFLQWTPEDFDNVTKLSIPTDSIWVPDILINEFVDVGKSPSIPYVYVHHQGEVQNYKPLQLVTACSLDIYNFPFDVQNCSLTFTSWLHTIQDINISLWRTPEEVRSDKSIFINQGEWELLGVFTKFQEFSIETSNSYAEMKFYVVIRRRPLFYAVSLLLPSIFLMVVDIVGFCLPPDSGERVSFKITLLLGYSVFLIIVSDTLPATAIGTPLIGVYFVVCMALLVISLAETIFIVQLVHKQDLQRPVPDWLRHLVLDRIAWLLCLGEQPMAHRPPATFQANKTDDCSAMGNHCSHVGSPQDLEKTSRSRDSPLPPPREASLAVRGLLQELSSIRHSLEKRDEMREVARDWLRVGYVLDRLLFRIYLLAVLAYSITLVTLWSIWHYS
Kind of test: 5-HT3 receptor antagonism in the isolated vagus nerve of the rat (5-HT induced depolarization). The format is cell-based. The following applies: isolated rat cervical vagus nerve; antagonism of 5-HT induced depolarization; estimated from 5-HT concentration ratios; read-out: apparent pKB (converted). On the procedure: The compounds of the invention are tested for 5-HT3 receptor antagonism in the isolated vagus nerve of the rat by a method based upon that of Ireland S. J. and Tyers M. B., Brit. J. Pharmacol., 1987, 90, 229-238. The procedure relies upon the ability of 5-HT to induce depolarization of neurones in the cervical vagus nerve by a direct action on 5-HT3 receptors. A concentration-response curve to 5-HT induced depolarization is obtained and the antagonists are added to the bath containing the isolated nerve before repeating the 5-HT concentration-response curve. Antagonist potency is estimated for the 5-HT concentration ratios and expressed as an apparent pKB value (where KB is the antagonist dissociation constant).

Test [2] concerns the target T2, 5-HT3 receptors (Oryctolagus cuniculus, UniProt A0A5F9C9J3).
T2 construct: isolated right atrium of the rabbit heart; from tissue; host or cells: rabbit isolated right atrium (sympathetic nerve terminals)
T2 sequence (A0A5F9C9J3 1-494): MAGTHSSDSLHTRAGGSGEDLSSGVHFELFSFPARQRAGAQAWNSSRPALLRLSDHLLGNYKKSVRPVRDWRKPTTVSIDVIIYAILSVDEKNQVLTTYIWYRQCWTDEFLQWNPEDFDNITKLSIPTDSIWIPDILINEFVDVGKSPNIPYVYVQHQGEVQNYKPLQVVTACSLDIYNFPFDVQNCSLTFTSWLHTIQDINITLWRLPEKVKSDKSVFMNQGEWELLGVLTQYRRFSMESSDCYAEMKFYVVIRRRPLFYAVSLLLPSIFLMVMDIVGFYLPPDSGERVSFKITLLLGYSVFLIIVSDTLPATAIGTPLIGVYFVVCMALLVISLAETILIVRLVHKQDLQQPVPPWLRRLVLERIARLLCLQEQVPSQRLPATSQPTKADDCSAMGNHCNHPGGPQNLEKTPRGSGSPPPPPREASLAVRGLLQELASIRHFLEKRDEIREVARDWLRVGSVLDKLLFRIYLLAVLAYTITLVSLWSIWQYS
Kind of test: 5-HT3 antagonist activity in the isolated right atrium of the rabbit heart. The format is cell-based. The following applies: antagonism of 5-HT evoked increase in spontaneous rate of beating, read-out: apparent pKB (converted). On the procedure:
The compounds of the invention are also tested for 5-HT3 antagonist activity in the isolated right atrium of the rabbit heart based upon the method of Fozard J. R., Naunyn-Schmiedeberg's Arch. Pharmacol., 1984, 326, 36-44. This procedure relies upon the ability of 5-HT to stimulate 5-HT3 receptors present on symphetic nerve terminals in the heart, causing release of noradrenaline which evokes an increase in the spontaneous rate of beating. The antagonist potency is expressed in a similar manner to that of the preceding test method i.e. as an apparent pKB.

As to `CN1C2C=C(Cc3ccc4ccccc4n3)CC1CC2` (centres unmarked) [Example 2, 3-(2-Quinolinylmethyl)-8-methyl-8-azabicyclo[3.2.1]oct-2-ene], the Kb in test [1] was 63.1 nM; in test [2], 2.51 nM.

These data come from patent US5204470A, “Azabicyclic derivatives” (John Wyeth & Brother, Limited, priority 1990, dated 1993).
